Row | Structure (SMILES) | melting point
1 | COc1ccc(C(OCC2(COS(=O)(=O)c3ccc(C)cc3)OC(n3ccc(=O)[nH]c3=O)C(O)C2O)(c2ccccc2)c2ccc(OC)cc2)cc1 (stereo not given) | 104 to 105 °C
2 | COc1cc(-c2cnc(N[N+](=O)[O-])[nH]c2=O)ccn1 | 194 to 196 °C
3 | O=S(=O)(Nc1cccc2c(Cl)c[nH]c12)c1ccc(CCCn2ccnc2)cc1 | 86 to 90 °C
4 | CCOC(=O)C1=C(N)NC(N)=C(C(=O)OCC)C1c1c(OC)ncnc1OC | 219 °C
5 | COc1ccc(C(=O)Nc2c(Cl)cncc2Cl)c2c1oc1ccc(C(F)(F)F)cc12 | 298 °C
6 | COc1ccc2c3c(c(=O)oc2c1)CN(CCc1ccccc1)CC3 | 135 to 136 °C
7 | CC(=O)Nc1ccc2nc(CN3[C@H](C)CCC[C@@H]3C)ccc2c1 | 120 to 122 °C
8 | CCOC(=O)COC1CC(C)(C)N(O)C(C)(C)C1 | 41 to 43 °C
9 | O=S(=O)(Nc1cccc2cc(C3=NCCS3)[nH]c12)c1cccs1 | 189 to 190 °C
10 | CCC[C@H]1C=C(C(=O)OCC)OC(=O)[C@H]1Cc1ccccc1 | 77 to 81 °C
11 | COC(=O)NNC(=O)CCc1ccccc1 | 118 °C
12 | Cc1cn(C2CC2)c(=O)nc1NS(=O)(=O)c1ccc(N)cc1 | 134 to 136 °C
13 | c1ccc2c(c1)Oc1ccccc1C2NCCn1ccnc1 | 90 to 92 °C
14 | CNn1c(C)nn(C(=O)NC(C)(C)CCl)c1=O | 93 °C
15 | CCCc1nc(C(O)C(C)(C)C)c(C(=O)O)n1Cc1ccc(-c2ccccc2C(=O)OC(C)(C)C)cc1 (stereo not given) | 207 °C
16 | Cn1cc2c(O)cc(-c3ccccc3)nc2n1 | 241 to 243 °C
17 | CC(C(=O)N1CCCC1C(=O)O)N(CC(=O)C(Cc1ccccc1)NC(=O)c1ccccc1)C(=O)OCc1ccccc1 (stereo not given) | 70 to 91 °C
18 | COC(=O)C1(C(=O)OC)CCC1(C(=O)OC)C(=O)OC | 80.5 to 81 °C
19 | CCOC(=O)C(=O)CC(=O)c1cn(Cc2ccc(Cl)cc2)c2ccccc2c1=O | 174 to 176 °C
20 | N#CCC(=O)Nc1ccc(-n2nc(C(F)(F)F)cc2C(F)(F)F)cc1 | 140 to 143 °C

Row | Structure (SMILES) | melting point
21 | CC(C)c1nc(CN)n(C)c1Sc1cccc([N+](=O)[O-])c1 | 77 to 78 °C
22 | Cn1ccc2c(c(=NO)c1=O)C=CCC2 | 225 to 226 °C
23 | O=[N+]([O-])c1ccc(-c2ccc(OCCCCCCO)cc2)cc1 | 117 to 119 °C
24 | CN(C)c1ccc(C2(c3ccc(N(C)C)cc3N(C)C)OC(=O)c3ccccc32)cc1 (stereo not given) | 190 to 194 °C
25 | CC(C)(C)OC(=O)NCC1CC(ON2C(=O)c3ccccc3C2=O)C1 (stereo not given) | 145 to 150 °C
26 | CCCCCCCCOc1ccc2c(c1OCCCCCCCC)C(=O)c1ccccc1C2=O | 91 to 94 °C
27 | CCNC1c2cc(S(N)(=O)=O)oc2SCC1(C)C (stereo not given) | 147 °C
28 | CCOC(=O)C(=CC=C1CCc2ccccc2C1=O)N(C)C | 123 °C
29 | COc1ccc(-c2ccc3c(c2)CC[C@H]2N(C)C(=O)CC[C@]32C)cc1 | 150 °C
30 | CCOC(=O)c1cnc2c(SC(=O)N3CCN(Cc4ccc5c(c4)OCO5)CC3)cccn2c1=O | 159 to 161 °C
31 | CCOC(=O)C(=O)NC1N=C2C(=Cc3ccccc32)S1 (stereo not given) | 226 to 228 °C
32 | CSc1c(C#N)c(=O)n(C)c(=O)n1C | 118 to 120 °C
33 | CCOCCOCCOCCOc1ccc(OCCCCCCCCCCCCOc2ccccc2)cc1N(CC(=O)O)CC(=O)O | 58 to 61 °C
34 | CC(C)Oc1ccc2c(c1)N(C)C(=O)N(c1ccc(CC(=O)O)cc1)S2(=O)=O | 232 to 233 °C
35 | O=c1cc(C(F)(F)C(F)(F)F)nc[nH]1 | 122 to 126 °C
36 | Fc1ccc(Oc2ccc(-c3nc4ccccc4[nH]3)cc2)cc1 | 243 to 245 °C
37 | C=CC(=O)Nc1ccc2c(c1)nnn2C(C)=O | 167 to 170 °C
38 | COc1ccc(C=O)c(Br)c1Oc1ccc([N+](=O)[O-])cc1 | 115 to 117 °C
39 | C#CC[C@@H](N)c1nc2cc(Cl)ccc2c(=O)n1Nc1ccccc1 | 175 to 180 °C
40 | Clc1ccc2c(Cl)nc(-c3ccc(Br)cc3)nc2c1 | 189 to 190 °C
